Consider one compound from article PMC5412012, “HS1BP3 negatively regulates autophagy by modulation of phosphatidic acid levels” (Nature Communications, 2016).

The target in assay [1] is T1, HS1BP3 (full length, GST-tagged) (Homo sapiens, UniProt Q53T59).
T1 construct: full length, N-terminal PX domain plus unstructured C terminus; GST-tagged (floatation) or MBP-tagged (lipid strips), expressed in Escherichia coli
T1 sequence (Q53T59 1-392): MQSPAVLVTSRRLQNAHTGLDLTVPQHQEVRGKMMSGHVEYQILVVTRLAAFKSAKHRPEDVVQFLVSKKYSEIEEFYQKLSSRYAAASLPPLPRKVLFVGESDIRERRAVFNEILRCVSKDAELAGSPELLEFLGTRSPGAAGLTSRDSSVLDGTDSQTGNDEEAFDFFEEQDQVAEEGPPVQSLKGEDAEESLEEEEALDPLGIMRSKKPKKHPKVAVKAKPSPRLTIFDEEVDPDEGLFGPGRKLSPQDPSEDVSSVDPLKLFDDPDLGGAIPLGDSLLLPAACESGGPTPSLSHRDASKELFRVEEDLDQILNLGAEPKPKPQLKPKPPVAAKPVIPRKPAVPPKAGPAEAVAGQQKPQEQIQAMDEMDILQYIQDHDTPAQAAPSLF
The experiment in a line: liposome floatation (Nycodenz), Coomassie gel. Format: binding. The conditions noted are these: 5 uM GST-tagged protein, 2 mM total lipid, 20 mM Hepes pH 7.4, 150 mM NaCl, 1 mM MgCl2, 25 °C; PA in liposomes.

For assay [2], the target named is T2, HS1BP3-PX (PX domain, GST-tagged) (Homo sapiens, UniProt Q53T59).
T2 construct: N-terminal PX domain only, lacks C-terminal part; by primers starts at Met1 (MQSPAVL) and ends ...EFLGTRS; GST- or MBP-tagged, expressed in Escherichia coli
T2 sequence (Q53T59 1-139): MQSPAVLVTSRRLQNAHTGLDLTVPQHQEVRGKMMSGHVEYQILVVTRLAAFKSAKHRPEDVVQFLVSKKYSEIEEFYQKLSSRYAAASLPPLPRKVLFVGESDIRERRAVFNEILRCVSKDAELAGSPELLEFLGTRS
The experiment in a line: liposome floatation (Nycodenz), Coomassie gel. Type of assay: binding. The following applies: 5 uM GST-tagged protein, 2 mM total lipid, 20 mM Hepes pH 7.4, 150 mM NaCl, 1 mM MgCl2, 25 °C; PA in liposomes.

With `CCCCCCCC/C=C\CCCCCCCC(=O)OC[C@H](COP(=O)(O)O)OC(=O)CCCCCCC/C=C\CCCCCCCC` [dioleyoyl-phosphatidic acid], the “liposome floatation (Nycodenz), Coomassie gel” value in assay [1] was “binding of both HS1BP3 and the PX domain to PA increase with increasing concentrations”; in assay [2], “binding of both HS1BP3 and the PX domain to PA increase with increasing concentrations”.
